Data published in patent publication US9706772B2, “Method for fungicidal and/or bactericidal treatment of resistant strains using essential oil(s)” (XEDA INTERNATIONAL, priority 2011, dated 2017).

Columns and labels:
Pennicillum spp. = assay: In-vitro inhibition of growth on PDA Petri dishes; type: cell-based
Method: (§1) The samples were added to the artificial media and gently mixed before solidification of the Agar solution.
(§2) A small amount of fungal spores is placed in the centre of the potato dextrose agar (PDA) in the Petri dishes at 25°±1° C. for 5/6 days. At the end of the incubation period, we measure the inhibition of the halo that is formed in comparison with the untreated PDA Petri dishes (control).
(§3) The results are indicated as a percentage of the incidence of the disease and the efficacy percentage of the products tested.

[1] = test system: Pennicillum spp. Strain resistant to Imazalil; assay: In-vitro inhibition of growth on PDA Petri dishes; type: cell-based
Method: as §1, §2, §3

[2] = test system: Botrytis spp. Strain resistant to TBZ; assay: In-vitro inhibition of growth on PDA Petri dishes; type: cell-based
Method: as §1, §2, §3

[3] = test system: strains of Penicillium expansum resistant to pyrimethanil; assay: Efficacy of compositions on Gala apples, FIG. 1; type: in vivo; details: FIG. 1, "Gala" apples; over the doses shown
From the text: These compositions have been tested on various fungi or bacteria strains, such as illustrated in FIGS. 1 and 2. Unless otherwise indicated, the doses listed in the FIGS. 1 and 2 are given in ppm of active ingredient; the indications in ml/l refer to the quantity of composition C. […] Indeed it is observed that there is a synergistic effect between the fungicide and essential oils/terpene agents.

[4] = test system: Monilinia fructicola Strain resistant to Pyrimethanil; assay: In-vitro inhibition of growth on PDA Petri dishes; type: cell-based; details: dose not stated
Method: as §1, §2, §3

With `Cc1ccc(C(C)C)c(O)c1` [Thymol] the “Efficacy (%)” value (Pennicillum spp.; Dose 100 ml/hl) was 20%, the “Incidence of Disease (%)” value (Pennicillum spp.; Dose 100 ml/hl) was 80% and the “Efficacy (%)” value (Pennicillum spp.; Dose 300 ml/hl) was 50%. For the same molecule, the “Incidence of Disease (%)” value (Pennicillum spp.; Dose 300 ml/hl) was 50%, the “Efficacy (%)” value (Pennicillum spp.; Dose 500 ml/hl) was 70% and the “Incidence of Disease (%)” value (Pennicillum spp.; Dose 500 ml/hl) was 30%. For the same molecule, the “Efficacy (%)” value (Pennicillum spp.; Dose 1,000 ml/hl) was 70%, the “Incidence of Disease (%)” value (Pennicillum spp.; Dose 1,000 ml/hl) was 30% and the “Efficacy (%)” value ([1]; Dose 100 ml/hl) was 70%. For the same molecule, the “Incidence of Disease (%)” value ([1]; Dose 100 ml/hl) was 30%, the “Efficacy (%)” value ([1]; Dose 300 ml/hl) was 70% and the “Incidence of Disease (%)” value ([1]; Dose 300 ml/hl) was 30%. For the same molecule, the “Efficacy (%)” value ([1]; Dose 500 ml/hl) was 80%, the “Incidence of Disease (%)” value ([1]; Dose 500 ml/hl) was 20% and the “Efficacy (%)” value ([1]; Dose 1,000 ml/hl) was 90%. The “Incidence of Disease (%)” value ([1]; Dose 1,000 ml/hl) was 10%.

With `Cc1ccc(C(C)C)cc1O` [Carvacrol] the “Efficacy (%)” value ([2]; Dose 100 ml/hl) was 100%, the “Incidence of Disease (%)” value ([2]; Dose 100 ml/hl) was 0% and the “Efficacy (%)” value ([2]; Dose 300 ml/hl) was 100%. The “Incidence of Disease (%)” value ([2]; Dose 300 ml/hl) was 0%, the “Efficacy (%)” value ([2]; Dose 500 ml/hl) was 100% and the “Incidence of Disease (%)” value ([2]; Dose 500 ml/hl) was 0%. For the same molecule, the “Efficacy (%)” value ([2]; Dose 1,000 ml/hl) was 100%, the “Incidence of Disease (%)” value ([2]; Dose 1,000 ml/hl) was 0% and the “control (in words)” value ([2]; at all doses tested) was “total control”.

With `Cc1cc(C)nc(Nc2ccccc2)n1` [pyrimethanil] the efficacy [3] was “at most 60%” and the efficacy [4] was 45%.
